Molecules are shown by their SMILES.

One data set addresses T1, α-synuclein lesion (Mus musculus, UniProt O55042).
T1 construct: from tissue; host or cells: brain of C57/BL/6 mouse inoculated in the striatum with recombinant (E. coli) mouse α-synuclein fibrils; sections or living animal
Nature of the data set: In vivo two-photon laser scanning fluorescence microscopy of α-synuclein fibril-inoculated model mouse. Particulars: 50 μl DMSO solution containing 0.1% compound, i.p. As to the method:
(§1) First, mouse α-synuclein was expressed in and extracted from E. coli as a recombinant protein, and then incubated in vitro to form insoluble α-synuclein aggregates. The α-synuclein aggregates were then inoculated into the striatum of a mouse. […] Note that the inoculation of the α-synuclein aggregates into the striatum of the mouse was carried out in the following manner. First, hair on the head of a 9-week-old C57/BL/6 male mouse which had been anesthetized with 1.5% (v/v) isoflurane was removed, and the scalp was disinfected with isodine, followed by application of xylocaine and incision in the scalp to expose the skull. Then, a hole was drilled in the skull at a position of 0.05 mm posterior to the bregma and 2 mm lateral to the midline, and 3 μl of an α-synuclein fibril solution (mouse α-synuclein fibril (4 mg/ml) in saline) was injected into a position […] ventral to the brain surface with use of a glass pipette. The scalp was then returned and sutured.
A model mouse was anesthetized with 1.5% (v/v) isoflurane 6 or more weeks after inoculation of an α-synuclein fibril solution. Then, a cranial window was placed on the model mouse in accordance with the Seylaz-Tomita method (Tomita et al. J Cereb Blood Flow Metab 25, 858-67, 2005). Two or more weeks after the placement of the cranial window, the mouse was anesthetized with 1.5% (v/v) isoflurane, and then 50 μl of a DMSO solution containing 0.1% BF-227, PBB3, SPAL-T-05, or SPAL-T-06 was intraperitoneally administered to the mouse. Thirty minutes after the administration, the mouse was fixed under a two-photon laser fluorescence microscope, 100 μl of physiological saline containing 5 mM Sulforhodamine 101 was intraperitoneally administered to the mouse, and then intravital two-photon fluorescence imaging was carried out at an excitation wavelength of 900 nm. Detection wavelengths for BF-227, PBB3, SPAL-T-05, and SPAL-T-06 were set at 500 nm to 550 nm, and a detection wavelength for Sulforhodamine 101 was set at 573 nm to 648 nm. In FIG. 4, each arrowhead indicates a blood vessel, and each arrow indicates fluorescence from the compound binding to an α-synuclein lesion.

In another data set the target is T2, α-synuclein aggregates (Mus musculus, UniProt O55042).
T2 construct: from tissue; host or cells: brain of C57/BL/6 mouse inoculated in the striatum with recombinant (E. coli) mouse α-synuclein fibrils; sections or living animal
Briefly: In vivo PET imaging of mouse brain (α-synuclein fibril-inoculated mouse vs physiological saline-injected mouse). Conditions: intravenous injection of 18F-labeled compound, 90 minutes scan. As to the method:
as §1
PET scanning was carried out with use of a micro PET Focus 220 animal scanner (Siemens Medical Solutions), which provided 95 slices each having a thickness of 0.851 mm (center thickness), a […]. Before the scanning, an α-synuclein fibril-inoculated mouse and a physiological saline-injected mouse (control) were each anesthetized with 1.5% (v/v) isoflurane. […]

A further data set addresses T3, α-synuclein lesions (Homo sapiens, UniProt P37840).
T3 construct: α-synuclein aggregates formed in the brain of the DLB patient; from tissue; host or cells: post-mortem human brain: amygdala of DLB patient (sections or homogenate); cerebellum of MSA patient
Briefly: In vitro fluorescence microscope measurement of the sections subjected to autoradiography (DLB, MSA). Particulars: 30 μM, 50% ethanol, 30 minutes. As to the method:
The section that had been subjected to the autoradiography was analyzed by fluorescent staining. Specifically, the section and 30 μM SPAL-T-06 were incubated in a 50% ethanol solution at room temperature for 30 minutes. Thereafter, the section was washed with a 50% ethanol solution for 5 minutes and with ultrapure water for 3 minutes. This washing was carried out twice. After the section was mounted in a mounting medium (VECTASHIELD H-1000), an image of an α-synuclein aggregate-enriched area on the section was obtained with use of a fluorescence microscope (DM4000 (excitation wavelength: 391 nm to 437 nm)). An adjacent brain section was also washed with a phosphate buffer solution, and then treated in an autoclave for antigen retrieval. After the section was subjected to immunohistochemical staining with an anti-phosphorylated α-synuclein monoclonal antibody (pS129, abcam, ab59264) (1:1000) and then mounted in a mounting medium (VECTASHIELD H-1000), images were obtained with use of fluorescence microscopes (BZ-X710, KEYENCE (excitation wavelength: 450 nm to 490 nm) and DM4000 (excitation wavelength: 460 nm to 500 nm)).

As for `CNc1cnc(C#C/C=C/c2nc3ccc(OCC(O)CF)cc3s2)cn1` (stereo not shown) [SPAL-T-06, (E)-1-fluoro-3-((2-(4-(5-(methylamino)pyrazin-2-yl)but-1-en-3-yn-1-yl)benzo[d]thiazol-6-yl)oxy)propan-2-ol], on α-synuclein lesion (excitation 900 nm), the “detection of / binding to α-synuclein lesions in living mouse brain (two-photon fluorescence)” value is on record as “bound to α-synuclein lesions”. The “delivery into the brain after intraperitoneal administration” value on α-synuclein lesion (imaging 30 minutes after administration) is “delivered into the brain and further into neurons of the living body”. Moreover, at α-synuclein aggregates, the “brain-entering property / clearance rate from the brain (PET)” value is “adequate brain-entering property or an adequate clearance rate from the brains”. Besides, the “binding to α-synuclein lesions in DLB and MSA brain sections (fluorescent staining)” value on α-synuclein lesions is reported as “bound to α-synuclein lesions”.
